Results on 14 molecules are retold here after ChEMBL document CHEMBL4422681, “Comprehensive kinetic and substrate specificity analysis of an arylsulfatase from Helix pomatia using mass spectrometry” (Bioorg Med Chem, 2019).

For data set [1], the system named is arylsulfatase. Description: Substrate activity at Helix pomatia arylsulfatase assessed as enzyme-mediated compound hydrolysis using 1 U of enzyme measured after 30 mins by UPLC-MS/MS analysis. Type of data set: ADME. Particulars: Helix pomatia arylsulfatase (isolated enzyme), read-out: Drug metabolism.
A short description of data set [2]: Substrate activity at Helix pomatia arylsulfatase assessed as enzyme-mediated compound hydrolysis by measuring Vmax by UPLC-MS/MS analysis. Type of data set: ADME.
Data set [3] in a line: Stability of the compound in pH 7 ammonium acetate buffer by UPLC-MS/MS analysis. Type of data set: physicochemical.
Data set [4] has as its system arylsulfatase. Description: Substrate activity at Helix pomatia arylsulfatase assessed as enzyme-mediated compound hydrolysis by measuring Km by UPLC-MS/MS analysis. It counts as ADME. Particulars: Helix pomatia arylsulfatase (isolated enzyme).
In data set [5] the test system is arylsulfatase. Description: Substrate activity at Helix pomatia arylsulfatase assessed as enzyme-mediated compound hydrolysis using 1 U of enzyme measured after 24 hrs by UPLC-MS/MS analysis. Particulars: Helix pomatia arylsulfatase (isolated enzyme), read-out: Drug metabolism. It counts as ADME.
A short description of data set [6]: Substrate activity at Helix pomatia arylsulfatase assessed as enzyme-mediated compound hydrolysis by measuring catalytic efficiency by UPLC-MS/MS analysis. Type of data set: ADME.
Data set [7] can be described thus: Drug metabolism in pH 7 ammonium acetate buffer assessed as 7-hydroxy-4-methyl-2H-chromen-2-one formation.
Data set [8] deals with arylsulfatase. Description: Substrate activity at Helix pomatia arylsulfatase assessed as enzyme-mediated compound hydrolysis by measuring parent compound remaining using 0.1 U of enzyme measured after 30 mins by UPLC-MS/MS analysis. It counts as ADME. Particulars: Helix pomatia arylsulfatase (isolated enzyme), read-out: Stability.
Data set [9] relates to arylsulfatase. Description: Substrate activity at Helix pomatia arylsulfatase assessed as enzyme-mediated compound hydrolysis using 5 U of enzyme measured after 30 mins by UPLC-MS/MS analysis. Type of data set: ADME. Particulars: Helix pomatia arylsulfatase (isolated enzyme), read-out: Drug metabolism.

A word on the Vmax: it is the top rate of the reaction or transport when substrate is in excess. The term Km denotes the concentration of substrate that gives half-maximal velocity.

Counter-ions that a name gives are not always drawn.

As for `COc1ccc2c(c1)c(=O)oc1cc(OS(=O)(=O)O)ccc12`, the metabolised at 0.5 h in the data set with arylsulfatase [1] is 100%. In [2], the Vmax was 8.21 µM/s. The Stability result in data set [3] is “Stable”. Also, the Km in the data set on arylsulfatase [4] was found to be 112 µM.
In the same order, the values of `C[C@]12CC[C@@H]3c4ccc(OS(=O)(=O)O)cc4CC[C@H]3[C@@H]1CCC2=O` [ESTRONE SULFURIC ACID] are 100%, 3.8 µM/s, “Stable” and 351 µM.
`Cc1ccc(OS(=O)(=O)O)cc1`: in data set [2], the Vmax turned out to be 0.08 µM/s. Also, in the data set on arylsulfatase [5], the metabolised at 24 h came out at 100%. Also, in [6], the Activity was determined as 623 s⁻¹ µM⁻¹. The Stability result in data set [3] is “Stable”. Further, the Michaelis constant (Km) in the data set with arylsulfatase [4] was 1400 µM.
The like results for `COc1cc(/C=C/C(=O)O)ccc1OS(=O)(=O)O` were, in that order, 0.01 µM/s, 100%, 862 s⁻¹ µM⁻¹, “Stable” and 161 µM.
The like results for `CCc1ccc(OS(=O)(=O)O)cc1` were, in that order, 0.66 µM/s, 100%, 7010 s⁻¹ µM⁻¹, “Stable” and 1020 µM.
As to `Cc1cc(=O)oc2cc(OS(=O)(=O)O)ccc12`, the metabolised at 0.5 h in the data set with arylsulfatase [1] and in the data set with arylsulfatase [9] was 100% each time. Also, the Vmax in [2] stood at 2.66 µM/s. The Drug metabolism entry in [7] was “Metabolite detected”. Further, in the data set on arylsulfatase [8], the remaining at 0.5 h was 3%. For the same molecule, the Stability entry in [3] is “Stable”. In the data set on arylsulfatase [4], the Km stood at 175 µM.
Consider `CC(=O)NCCc1ccc(OS(=O)(=O)O)cc1`, for which the Vmax in data set [2] came out at 0.17 µM/s. The metabolised at 24 h with arylsulfatase [5] came out at 100%. Besides, the Activity in data set [6] came out at 1210 s⁻¹ µM⁻¹. Besides, the Stability entry in data set [3] is “Stable”. For the same molecule, the Km with arylsulfatase [4] is 1490 µM.
As for `COc1cc(C(=O)O)ccc1OS(=O)(=O)O`, the Vmax in data set [2] amounted to 0.01 µM/s. The metabolised at 24 h in the data set with arylsulfatase [5] was determined as 100%. Besides, the Activity in [6] is 351 s⁻¹ µM⁻¹. The Stability entry in data set [3] is “Stable”. Also, the Km in the data set on arylsulfatase [4] worked out at 341 µM.
On to `C=Cc1ccc(OS(=O)(=O)O)c(OC)c1`, for which, in the data set with arylsulfatase [1], the metabolised at 0.5 h amounted to 100%. In addition, the Stability entry in data set [3] is “Stable”.
Consider `O=C(O)/C=C/c1ccc(OS(=O)(=O)O)cc1`, for which the Vmax in data set [2] is 0.02 µM/s. In addition, the metabolised at 24 h with arylsulfatase [5] stood at 100%. Besides, the Activity in data set [6] is 898 s⁻¹ µM⁻¹. Moreover, in [3], the Stability entry is listed as “Stable”. Further, in the data set with arylsulfatase [4], the Km was 262 µM.
The like results for `O=S(=O)(O)Oc1cccc(O)c1` were, in that order, 0.01 µM/s, 100%, 696 s⁻¹ µM⁻¹, “Stable” and 131 µM.
In the same order, the values of `O=S(=O)(O)Oc1c[nH]c2ccccc12` [INDOXYL SULFATE] are 0.02 µM/s, 100%, 1060 s⁻¹ µM⁻¹, “Stable” and 216 µM.
For the molecule `O=[N+]([O-])c1ccc(OS(=O)(=O)O)cc1`, in the data set on arylsulfatase [1], the metabolised at 0.5 h stood at 100%. Besides, in data set [3], the Stability entry is recorded as “Stable”.
In the case of `Cc1c[nH]c2ccc(OS(=O)(=O)O)cc12`, in the data set on arylsulfatase [5], the metabolised at 24 h came out at 100%. Moreover, in [3], the Stability result was “Stable”.
